{"source": "patent US20220304352A1", "about": "“TASTE-MODIFYING COMPOUNDS AND USES THEREOF” (Firmenich SA, priority 2019, published 2022)", "format_in_all_cases": "in vivo", "key": {"trained panelists [1]": {"system": "trained panelists", "assay": "Sensory evaluation of umami in 0.05% MSG base (trained panel, scale -5 to 5)", "from_the_text": "(§1) A panel consisting of 25 trained panelists evaluated samples at 5, 10 or 20 ppm for taste properties (salt and/or umami, or KCl taste) on a scale of −5 to 5 (−5 denoted strong masking effect and 5 denoted strong enhancing effect, 0 being the intensity of a reference water solution containing 0.25% NaCl or 0.25% KCl or 0.05% MSG or 1.5% chicken broth base). A panel consisted of 25 trained panelists evaluated samples at 5 ppm for taste properties (salt and/or umami) on a scale of −5 to 5 (−5 denoted strong masking effect and 5 denoted strong enhancing effect, 0 being the intensity of a reference water solution containing 0.25% NaCl or 0.05% MSG or 1.5% chicken broth base). • 1) Sensory Evaluation"}, "trained panelists [2]": {"system": "trained panelists", "assay": "Sensory evaluation of saltiness in 0.25% NaCl base (trained panel, scale -5 to 5)", "from_the_text": "as §1"}, "trained panelists [3]": {"system": "trained panelists", "assay": "Sensory evaluation of saltiness and KCl taste in 0.25% KCl base (trained panel, scale -5 to 5)", "details": "0.25% KCl base, 20 ppm", "from_the_text": "A panel consisting of 25 trained panelists evaluated samples at 5, 10 or 20 ppm for taste properties (salt and/or umami, or KCl taste) on a scale of −5 to 5 (−5 denoted strong masking effect and 5 denoted strong enhancing effect, 0 being the intensity of a reference water solution containing 0.25% NaCl or 0.25% KCl or 0.05% MSG or 1.5% chicken broth base)."}}}
{"smiles": "O=C(NCCO)c1ccc(O)cc1", "note": "[Compound III]", "values": [{"measurement": "umami enhancement", "setting": "trained panelists [1]; 5 ppm, with nose-clip", "result": "enhanced umami"}, {"measurement": "umami enhancement", "setting": "trained panelists [1]; 5 ppm, without nose-clip", "result": "enhanced umami"}, {"measurement": "saltiness enhancement", "setting": "trained panelists [2]; 5 ppm, with nose-clip", "result": "significantly enhanced saltiness"}, {"measurement": "saltiness enhancement", "setting": "trained panelists [2]; 5 ppm, without nose-clip", "result": "significantly enhanced saltiness"}]}
{"smiles": "O=C(NCCO)c1ccccc1", "note": "[Compound II]", "values": [{"measurement": "umami enhancement", "setting": "trained panelists [1]; 5 ppm, with nose-clip", "result": "enhanced"}, {"measurement": "umami enhancement", "setting": "trained panelists [1]; 5 ppm, without nose-clip", "result": "enhanced umami"}, {"measurement": "saltiness enhancement", "setting": "trained panelists [2]; 5 ppm, with nose-clip", "result": "significantly enhanced saltiness"}, {"measurement": "saltiness enhancement", "setting": "trained panelists [2]; 5 ppm, without nose-clip", "result": "enhanced saltiness"}]}
{"smiles": "O=C(/C=C/c1ccccc1)NCCO", "note": "[Compound IV]", "values": [{"measurement": "umami enhancement", "setting": "trained panelists [1]; 10 ppm, with nose-clip", "result": "enhanced umami"}, {"measurement": "umami enhancement", "setting": "trained panelists [1]; 10 ppm, without nose-clip", "result": "enhanced umami"}, {"measurement": "saltiness enhancement", "setting": "trained panelists [2]; 10 ppm, with nose-clip", "result": "significantly enhanced saltiness"}, {"measurement": "saltiness enhancement", "setting": "trained panelists [2]; 10 ppm, without nose-clip", "result": "enhanced saltiness"}]}
{"smiles": "N=C(N)NCCCC(NC(=O)/C=C/c1ccccc1)C(=O)O", "note": "(stereo not drawn) [Compound VI]", "values": [{"measurement": "umami enhancement", "setting": "trained panelists [1]; 5 ppm, without nose-clip", "result": "significantly enhanced umami intensity"}, {"measurement": "umami enhancement", "setting": "trained panelists [1]; 10 ppm, with nose-clip", "result": "enhanced"}, {"measurement": "umami enhancement", "setting": "trained panelists [1]; 10 ppm, without nose-clip", "result": "enhanced"}, {"measurement": "saltiness enhancement", "setting": "trained panelists [2]; 5 ppm, with nose-clip", "result": "significantly enhanced saltiness intensity"}, {"measurement": "saltiness enhancement", "setting": "trained panelists [2]; 10 ppm, with nose-clip", "result": "enhanced saltiness"}, {"measurement": "saltiness enhancement", "setting": "trained panelists [2]; 10 ppm, without nose-clip", "result": "enhanced saltiness"}]}
{"smiles": "O=C(/C=C/C=C/c1ccc2c(c1)OCO2)NCCO", "note": "[Compound V]", "values": [{"measurement": "umami enhancement", "setting": "trained panelists [1]; 20 ppm, with nose-clip", "result": "enhanced umami"}, {"measurement": "umami enhancement", "setting": "trained panelists [1]; 20 ppm, without nose-clip", "result": "enhanced umami"}, {"measurement": "KCl taste masking", "setting": "trained panelists [3]; with nose-clip", "result": "significantly masked KCl taste"}, {"measurement": "saltiness enhancement", "setting": "trained panelists [3]; with nose-clip", "result": "enhanced saltiness"}, {"measurement": "KCl taste masking", "setting": "trained panelists [3]; without nose-clip", "result": "significantly masked KCl taste"}, {"measurement": "saltiness enhancement", "setting": "trained panelists [3]; without nose-clip", "result": "enhanced saltiness"}]}
